Source: PubChem BioAssay (NCI)
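How tested: cells in 96-well plates exposed to compound for 48 hours at five concentrations. TGI is the concentration that stops growth completely.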

How the values were obtained:
Assay in all cases: NCI anticancer screen, dose series, 48 h
NCI-H460 lung = system: NCI-H460 lung
MDA-N = system: MDA-N
MOLT-4 leukemia = system: MOLT-4 leukemia
MDA-MB-435 = system: MDA-MB-435
COLO 205 colon = system: COLO 205 colon
HS 578T breast = system: HS 578T breast
SW-620 colon = system: SW-620 colon
OVCAR-8 ovarian = system: OVCAR-8 ovarian
OVCAR-5 ovarian = system: OVCAR-5 ovarian
EKVX NSCLC = system: EKVX NSCLC
HL-60(TB) leukemia = system: HL-60(TB) leukemia
TK-10 renal = system: TK-10 renal
T-47D breast = system: T-47D breast
A549 NSCLC = system: A549 NSCLC
LOX IMVI melanoma = system: LOX IMVI melanoma
SK-OV-3 ovarian = system: SK-OV-3 ovarian
CCRF-CEM leukemia = system: CCRF-CEM leukemia
UO-31 renal = system: UO-31 renal
HT29 colon = system: HT29 colon
SNB-19 CNS = system: SNB-19 CNS
SNB-75 CNS = system: SNB-75 CNS
SK-MEL-2 melanoma = system: SK-MEL-2 melanoma
ACHN renal = system: ACHN renal
NCI-H23 lung = system: NCI-H23 lung
CAKI-1 renal = system: CAKI-1 renal
RXF 393 renal = system: RXF 393 renal
U251 CNS = system: U251 CNS
SN12C renal = system: SN12C renal
KM12 colon = system: KM12 colon
A498 renal = system: A498 renal
SK-MEL-5 melanoma = system: SK-MEL-5 melanoma
UACC-62 melanoma = system: UACC-62 melanoma
OVCAR-4 ovarian = system: OVCAR-4 ovarian
OVCAR-3 ovarian = system: OVCAR-3 ovarian
UACC-257 melanoma = system: UACC-257 melanoma
IGROV1 ovarian = system: IGROV1 ovarian
HOP-92 NSCLC = system: HOP-92 NSCLC
NCI-H522 lung = system: NCI-H522 lung
PC-3 prostate = system: PC-3 prostate
SK-MEL-28 melanoma = system: SK-MEL-28 melanoma
M14 melanoma = system: M14 melanoma
SF-539 CNS = system: SF-539 CNS
HCC-2998 colon = system: HCC-2998 colon
HCT-15 colon = system: HCT-15 colon
K-562 leukemia = system: K-562 leukemia
786-0 renal = system: 786-0 renal
NCI-H226 lung = system: NCI-H226 lung
MALME-3M melanoma = system: MALME-3M melanoma
NCI/ADR-RES ovarian = system: NCI/ADR-RES ovarian
SF-295 CNS = system: SF-295 CNS
DU-145 prostate = system: DU-145 prostate
BT-549 breast = system: BT-549 breast
MDA-MB-231 breast = system: MDA-MB-231 breast
SF-268 CNS = system: SF-268 CNS
HOP-62 NSCLC = system: HOP-62 NSCLC
MCF7 breast = system: MCF7 breast
RPMI-8226 leukemia = system: RPMI-8226 leukemia
HCT-116 colon = system: HCT-116 colon

Structure (SMILES): CN1C(=O)C(O)CC1c1ccc(C(F)(F)F)cc1 (centres undefined)
- TGI (NCI-H460 lung): > 100 µM
- TGI (MDA-N): > 100 µM
- TGI (MOLT-4 leukemia): > 100 µM
- TGI (MDA-MB-435): > 100 µM
- TGI (COLO 205 colon): > 100 µM
- TGI (HS 578T breast): > 100 µM
- TGI (SW-620 colon): > 100 µM
- TGI (OVCAR-8 ovarian): > 100 µM
- TGI (OVCAR-5 ovarian): > 100 µM
- TGI (EKVX NSCLC): > 100 µM
- TGI (HL-60(TB) leukemia): > 100 µM
- TGI (TK-10 renal): > 100 µM
- TGI (T-47D breast): > 100 µM
- TGI (A549 NSCLC): > 100 µM
- TGI (LOX IMVI melanoma): > 100 µM
- TGI (SK-OV-3 ovarian): > 100 µM
- TGI (CCRF-CEM leukemia): > 100 µM
- TGI (UO-31 renal): > 100 µM
- TGI (HT29 colon): > 100 µM
- TGI (SNB-19 CNS): > 100 µM
- TGI (SNB-75 CNS): > 100 µM
- TGI (SK-MEL-2 melanoma): > 100 µM
- TGI (ACHN renal): > 100 µM
- TGI (NCI-H23 lung): > 100 µM
- TGI (CAKI-1 renal): > 100 µM
- TGI (RXF 393 renal): > 100 µM
- TGI (U251 CNS): > 100 µM
- TGI (SN12C renal): > 100 µM
- TGI (KM12 colon): > 100 µM
- TGI (A498 renal): > 100 µM
- TGI (SK-MEL-5 melanoma): > 100 µM
- TGI (UACC-62 melanoma): > 100 µM
- TGI (OVCAR-4 ovarian): > 100 µM
- TGI (OVCAR-3 ovarian): > 100 µM
- TGI (UACC-257 melanoma): > 100 µM
- TGI (IGROV1 ovarian): > 100 µM
- TGI (HOP-92 NSCLC): > 100 µM
- TGI (NCI-H522 lung): > 100 µM
- TGI (PC-3 prostate): > 100 µM
- TGI (SK-MEL-28 melanoma): > 100 µM
- TGI (M14 melanoma): > 100 µM
- TGI (SF-539 CNS): > 100 µM
- TGI (HCC-2998 colon): > 100 µM
- TGI (HCT-15 colon): > 100 µM
- TGI (K-562 leukemia): > 100 µM
- TGI (786-0 renal): > 100 µM
- TGI (NCI-H226 lung): > 100 µM
- TGI (MALME-3M melanoma): > 100 µM
- TGI (NCI/ADR-RES ovarian): > 100 µM
- TGI (SF-295 CNS): > 100 µM
- TGI (DU-145 prostate): > 100 µM
- TGI (BT-549 breast): > 100 µM
- TGI (MDA-MB-231 breast): > 100 µM
- TGI (SF-268 CNS): > 100 µM
- TGI (HOP-62 NSCLC): > 100 µM
- TGI (MCF7 breast): > 100 µM
- TGI (RPMI-8226 leukemia): > 100 µM
- TGI (HCT-116 colon): > 100 µM

Structure (SMILES): COc1ccc2c(c1)/C(=C\c1c(-c3ccccc3)nc3n1CCS3)C(=O)N2
- TGI (NCI-H460 lung): 14.4 µM
- TGI (MDA-N): 5.62 µM
- TGI (MOLT-4 leukemia): 16.9 µM
- TGI (MDA-MB-435): 7.19 µM
- TGI (COLO 205 colon): 11.2 µM
- TGI (HS 578T breast): 38.7 µM
- TGI (SW-620 colon): 16.3 µM
- TGI (OVCAR-8 ovarian): 47.5 µM
- TGI (OVCAR-5 ovarian): 51.8 µM
- TGI (EKVX NSCLC): 48 µM
- TGI (HL-60(TB) leukemia): 11.4 µM
- TGI (TK-10 renal): 27.8 µM
- TGI (T-47D breast): 61.6 µM
- TGI (A549 NSCLC): 55.9 µM
- TGI (LOX IMVI melanoma): 20.6 µM
- TGI (SK-OV-3 ovarian): 34.5 µM
- TGI (CCRF-CEM leukemia): 26.9 µM
- TGI (UO-31 renal): 34.2 µM
- TGI (HT29 colon): 16 µM
- TGI (SNB-19 CNS): > 100 µM
- TGI (SNB-75 CNS): 36.8 µM
- TGI (SK-MEL-2 melanoma): 20.2 µM
- TGI (ACHN renal): 56.8 µM
- TGI (NCI-H23 lung): 33.4 µM
- TGI (CAKI-1 renal): 37.4 µM
- TGI (RXF 393 renal): 34.3 µM
- TGI (U251 CNS): 20.3 µM
- TGI (SN12C renal): 27.6 µM
- TGI (KM12 colon): 19.6 µM
- TGI (A498 renal): 21.3 µM
- TGI (SK-MEL-5 melanoma): 17 µM
- TGI (UACC-62 melanoma): 18.2 µM
- TGI (OVCAR-3 ovarian): 15.6 µM
- TGI (UACC-257 melanoma): 27.4 µM
- TGI (IGROV1 ovarian): 21.4 µM
- TGI (HOP-92 NSCLC): 30.8 µM
- TGI (NCI-H522 lung): 24.4 µM
- TGI (PC-3 prostate): 17.2 µM
- TGI (SK-MEL-28 melanoma): 27.7 µM
- TGI (M14 melanoma): 23 µM
- TGI (SF-539 CNS): 19.1 µM
- TGI (HCC-2998 colon): 22.9 µM
- TGI (HCT-15 colon): 40.6 µM
- TGI (K-562 leukemia): 17 µM
- TGI (786-0 renal): 28.6 µM
- TGI (MALME-3M melanoma): 30.7 µM
- TGI (NCI/ADR-RES ovarian): 35.4 µM
- TGI (SF-295 CNS): 15.1 µM
- TGI (DU-145 prostate): 60 µM
- TGI (BT-549 breast): 32.7 µM
- TGI (MDA-MB-231 breast): 17.9 µM
- TGI (SF-268 CNS): 28.1 µM
- TGI (HOP-62 NSCLC): 27.6 µM
- TGI (MCF7 breast): 29 µM
- TGI (RPMI-8226 leukemia): 32.2 µM
- TGI (HCT-116 colon): 18.2 µM
